Test results published in patent publication US6020366A, “Butyric acid matrix metalloproteinase inhibitors” (priority 1998, dated 2000).
pIC50: −log10 of the molar value.

Key:
Type in all cases: biochemical
MMP-2 (Gelatinase A) = target: T1, MMP-2 (Gelatinase A) (Homo sapiens, UniProt P08253); assay: inhibition of MMP-2 hydrolysis of thiopeptolide substrate; conditions: thiopeptolide substrate, pH 6.0, 22° C.; read-out: (IC50) MMP-2
T1 sequence (P08253 110-660): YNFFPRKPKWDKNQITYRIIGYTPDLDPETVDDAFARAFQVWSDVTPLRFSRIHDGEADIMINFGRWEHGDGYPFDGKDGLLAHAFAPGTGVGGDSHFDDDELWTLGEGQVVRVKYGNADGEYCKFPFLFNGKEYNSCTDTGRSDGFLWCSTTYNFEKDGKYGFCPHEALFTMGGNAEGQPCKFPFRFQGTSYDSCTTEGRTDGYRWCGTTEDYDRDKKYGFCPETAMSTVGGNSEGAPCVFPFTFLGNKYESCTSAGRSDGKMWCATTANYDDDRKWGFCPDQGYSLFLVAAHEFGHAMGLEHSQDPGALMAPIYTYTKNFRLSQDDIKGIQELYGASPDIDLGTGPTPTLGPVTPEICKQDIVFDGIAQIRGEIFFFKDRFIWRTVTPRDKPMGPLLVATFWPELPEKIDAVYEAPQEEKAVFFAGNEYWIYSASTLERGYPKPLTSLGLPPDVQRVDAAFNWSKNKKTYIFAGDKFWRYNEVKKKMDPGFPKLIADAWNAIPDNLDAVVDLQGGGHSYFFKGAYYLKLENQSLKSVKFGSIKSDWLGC

MMP-3 (stromelysin) = MMP-3 (stromelysin) (Homo sapiens, UniProt P08254); assay: inhibition of MMP-3 hydrolysis of thiopeptolide substrate; conditions: thiopeptolide substrate, pH 6.0, 22° C.; read-out: (IC50) MMP-3
MMP-3 (stromelysin), sequence (P08254 100-477): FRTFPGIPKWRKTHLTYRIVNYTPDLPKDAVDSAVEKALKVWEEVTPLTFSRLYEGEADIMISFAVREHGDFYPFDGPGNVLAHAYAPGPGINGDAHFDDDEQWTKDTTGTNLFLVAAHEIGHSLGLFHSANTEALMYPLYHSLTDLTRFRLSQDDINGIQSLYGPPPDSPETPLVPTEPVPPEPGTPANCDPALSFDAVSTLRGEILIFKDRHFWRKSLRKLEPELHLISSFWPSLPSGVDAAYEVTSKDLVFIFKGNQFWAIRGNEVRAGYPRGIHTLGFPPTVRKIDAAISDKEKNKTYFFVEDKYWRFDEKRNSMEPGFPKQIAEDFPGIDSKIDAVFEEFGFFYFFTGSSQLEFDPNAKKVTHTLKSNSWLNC
Source text: The assays measure the amount by which a test compound reduces the hydrolysis of a thiopeptolide substrate caused by a matrix metalloproteinase enzyme. Such assays are described in detail by Ye, et al., in Biochemistry, 1992;31(45):11231-11235).
Thiopeptolide substrates show virtually no decomposition or hydrolysis in the absence of a matrix metalloproteinase enzyme. A typical thiopeptolide substrate commonly utilized for assays is Ac-Pro-Leu-Gly-thioester-Len-Len-Gly-O Et. […] Assays are carried out with and without matrix metalloproteinase inhibitor compounds, and the amount of hydrolysis is compared for a determination of inhibitory activity of the test compounds.
In the table, MMP-1 refers to interstitial collagenase; MMP-2 refers to Gelatinase A; MMP-3 refers to stromelysin; MMP-7 refers to matrilysin; and MMP-13 refers to Collagenase 3.

MMP-13 (Collagenase 3) = MMP-13 (Collagenase 3) (Homo sapiens, UniProt P45452); assay: inhibition of MMP-13 hydrolysis of thiopeptolide substrate; conditions: thiopeptolide substrate, pH 6.0, 22° C.; read-out: (IC50) MMP-13
Source text: (§1) The invention compounds have been evaluated in standard in vitro assays and shown to be potent inhibitors of several matrix metalloproteinase enzymes.

[1] = target: T2, full-length collagenase (FLC) (Homo sapiens, UniProt P03956); assay: inhibition of full-length collagenase hydrolysis of thiopeptolide substrate
T2 construct: full-length collagenase hydrolysis of thiopeptolide substrate (FLC)
T2 sequence (P03956 100-469): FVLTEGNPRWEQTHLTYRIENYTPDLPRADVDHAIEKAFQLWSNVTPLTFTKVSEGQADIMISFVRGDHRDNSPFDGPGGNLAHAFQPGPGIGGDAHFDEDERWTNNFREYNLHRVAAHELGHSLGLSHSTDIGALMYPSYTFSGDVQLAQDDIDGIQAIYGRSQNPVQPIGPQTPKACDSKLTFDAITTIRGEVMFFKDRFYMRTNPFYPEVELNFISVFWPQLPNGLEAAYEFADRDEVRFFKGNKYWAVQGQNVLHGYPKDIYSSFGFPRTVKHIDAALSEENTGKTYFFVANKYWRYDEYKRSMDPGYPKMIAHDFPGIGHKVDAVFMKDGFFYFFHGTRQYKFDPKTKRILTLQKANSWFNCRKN
Source text: as §1
(§2) The compounds were additionally evaluated for their ability to inhibit full-length collagenase hydrolysis of thiopeptolide substrate (FLC) and full-length gelatinase B (FLGB) hydrolysis of thiopeptolide.

[2] = target: T3, full-length gelatinase B (FLGB) (Homo sapiens, UniProt P14780); assay: inhibition of full-length gelatinase B hydrolysis of thiopeptolide
T3 construct: full-length gelatinase B (FLGB) hydrolysis of thiopeptolide
T3 sequence (P14780 94-707): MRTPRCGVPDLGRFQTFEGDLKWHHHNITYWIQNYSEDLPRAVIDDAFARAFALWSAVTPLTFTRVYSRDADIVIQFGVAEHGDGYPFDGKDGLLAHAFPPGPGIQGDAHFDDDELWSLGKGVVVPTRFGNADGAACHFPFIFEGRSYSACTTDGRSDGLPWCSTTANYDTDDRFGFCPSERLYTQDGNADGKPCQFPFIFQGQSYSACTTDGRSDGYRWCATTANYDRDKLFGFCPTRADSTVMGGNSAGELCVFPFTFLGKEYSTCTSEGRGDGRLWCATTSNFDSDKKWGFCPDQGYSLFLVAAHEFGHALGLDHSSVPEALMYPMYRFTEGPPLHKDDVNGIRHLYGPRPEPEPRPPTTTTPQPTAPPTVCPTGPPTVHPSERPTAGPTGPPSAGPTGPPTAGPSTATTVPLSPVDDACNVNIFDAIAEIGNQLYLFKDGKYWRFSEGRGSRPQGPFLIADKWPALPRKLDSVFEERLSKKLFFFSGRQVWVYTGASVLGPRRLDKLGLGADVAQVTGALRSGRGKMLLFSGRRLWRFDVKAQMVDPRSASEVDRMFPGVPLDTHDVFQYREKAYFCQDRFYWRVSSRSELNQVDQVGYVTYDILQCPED
Source text: as §1, §2

[3] = target: T4, MMP-1 (interstitial collagenase) (Homo sapiens, UniProt P03956); assay: inhibition of MMP-1 hydrolysis of thiopeptolide substrate; conditions: pH 6.0, 22° C.
T4 sequence (P03956 100-469): T2 sequence (P03956 100-469)
Source text: as §1

Row | Structure (SMILES) | pIC50 (MMP-2 (Gelatinase A)) | pIC50 (MMP-3 (stromelysin)) | pIC50 (MMP-13 (Collagenase 3)) | pIC50 [1] | pIC50 [2] | pIC50 [3]
1 | O=C(C[C@H](NC(=O)C(F)(F)F)C(=O)O)c1ccc2oc3ccccc3c2c1 [Example 1, (S)-4-Dibenzofuran-2-yl-4-oxo-2-(2,2,2-trifluoroacetylamino)-butyric acid] | 7.23 | 6.02 | 5.55 | < 4.00 | < 4.00 | 
2 | Cc1ccc(S(=O)(=O)N[C@@H](CC(=O)c2ccc3oc4ccccc4c3c2)C(=O)O)cc1 [Example 14, (S) -4-Dibenzofuran-2-yl-4-oxo-2-(4-methylphenylsulfonylamino)-butyric acid] | 7.77 | 6.59 | 5.96 |  |  | 4.08
3 | CC(Oc1ccccc1)C(=O)NC(CC(=O)c1ccc2oc3ccccc3c2c1)C(=O)O (stereo not shown) [Example 30, 4-Dibenzofuran-2-yl-4-oxo-2-(2-phenoxy-propionylamino)-butyric acid] | 7.46 | 7.00 | 5.54 |  |  | 4.35
4 | CCCCCCC(=O)NC(CC(=O)c1ccc2oc3ccccc3c2c1)C(=O)O (stereo not shown) [Example 33, 4-Dibenzofuran-2-yl-2-heptanoylamino-4-oxo-butyric acid] | 7.22 | 6.19 | 5.33 |  |  | 
5 | CCCCc1ccc(C(=O)NC(CC(=O)c2ccc3oc4ccccc4c3c2)C(=O)O)cc1 (stereo not shown) [Example 34, 2-(4-Butyl-benzoylamino)-4-dibenzofuran-2-yl-4-oxo-butyric acid] | 6.06 | 5.27 | 4.31 |  |  | 
6 | N#Cc1ccc(C(=O)NC(CC(=O)c2ccc3oc4ccccc4c3c2)C(=O)O)cc1 (stereo not shown) [Example 35, 2-(4-Cyano-benzoylamino)-4-dibenzofuran-2-yl-4-oxo-butyric acid] | 6.96 | 5.96 | 4.96 |  |  | 
7 | O=C(CC(NC(=O)c1sccc1Cl)C(=O)O)c1ccc2oc3ccccc3c2c1 (stereo not shown) [Example 36, 2-[(3-Chloro-thiophene-2-carbonyl)-amino)-4-dibenzofuran-2-yl-4-oxo-butyric acid] | 6.85 | 6.00 | 4.89 |  |  | 
8 | CCCCOc1ccc(C(=O)NC(CC(=O)c2ccc3oc4ccccc4c3c2)C(=O)O)cc1 (stereo not shown) [Example 37, 2-(4-Butoxy-benzoylamino)-4-dibenzofuran-2-yl-4-oxo-butyric acid] | 6.10 | 5.30 | 4.24 |  |  | 
9 | O=C(CC(NC(=O)C1CC1)C(=O)O)c1ccc2oc3ccccc3c2c1 (stereo not shown) [Example 38, 2-(Cyclopropanecarbonyl-amino)-4-dibenzofuran-2-yl-4-oxo-butyric acid] | 7.05 | 6.07 | 5.25 |  |  | 
10 | O=C(CC(NC(=O)c1ccc(Cl)cc1)C(=O)O)c1ccc2oc3ccccc3c2c1 (stereo not shown) [Example 39, 2-(4-Chloro-benzoylamino)-4-dibenzofuran-2-yl-4-oxo-butyric acid] | 6.82 | 5.92 | 4.92 |  |  | 
11 | O=C(CC(NC(=O)c1ccco1)C(=O)O)c1ccc2oc3ccccc3c2c1 (stereo not shown) [Example 41, 4-Dibenzofuran-2-yl-2-[(furan-2-carbonyl)-amino]-4-oxo-butyric acid] | 6.85 | 5.82 | 4.92 |  |  | 
12 | O=C(CC(NC(=O)c1ccc(Br)cc1)C(=O)O)c1ccc2oc3ccccc3c2c1 (stereo not shown) [Example 42, 2-(4-Bromo-benzoylamino)-4-dibenzofuran-2-yl-4-oxo-butyric acid] | 6.74 | 5.89 | 4.77 |  |  | 
13 | O=C(CC(NC(=O)c1ccc(F)cc1)C(=O)O)c1ccc2oc3ccccc3c2c1 (stereo not shown) [Example 43, 4-Dibenzofuran-2-yl-2-(4-fluoro-benzoylamino)-4-oxo-butyric acid] | 7.15 | 6.18 | 5.15 |  |  | 
14 | O=C(CC(NC(=O)c1cnc2ccccc2n1)C(=O)O)c1ccc2oc3ccccc3c2c1 (stereo not shown) [Example 44, 4-Dibenzofuran-2-yl-4-oxo-2-[(quinoxaline-2-carbonyl)-amino]-butyric acid] | 6.51 | 5.46 | 4.57 |  |  | 
15 | O=C(CC(NC(=O)c1ccccn1)C(=O)O)c1ccc2oc3ccccc3c2c1 (stereo not shown) [Example 45, 4-Dibenzofuran-2-yl-4-oxo-2-[(pyridine-2-carbonyl)-amino]-butyric acid] | 6.96 | 6.00 | 4.82 |  |  | 
16 | COc1ccc(C(=O)NC(CC(=O)c2ccc3oc4ccccc4c3c2)C(=O)O)cc1 (stereo not shown) [Example 46, 4-Dibenzofuran-2-yl-2-(4-methoxy-benzoylamino)-4-oxo-butyric acid] | 6.85 | 6.00 | 4.96 |  |  | 
17 | COc1ccc(C(=O)NC(CC(=O)c2ccc3oc4ccccc4c3c2)C(=O)O)cc1OC (stereo not shown) [Example 47, 4-Dibenzofuran-2-yl-2-(3,4-dimethoxy-benzoylamino)-4-oxo-butyric acid] | 6.89 | 6.06 | 5.06 |  |  | 
18 | O=C(CC(NC(=O)c1ccc(C(F)(F)F)cc1)C(=O)O)c1ccc2oc3ccccc3c2c1 (stereo not shown) [Example 48, 4-Dibenzofuran-2-yl-4-oxo-2-(4-trifluoromethyl-benzoylamino)-butyric acid] | 6.49 | 5.82 | 4.70 |  |  | 
19 | O=C(CC(NC(=O)C1CCCC1)C(=O)O)c1ccc2oc3ccccc3c2c1 (stereo not shown) [Example 49, 2-(Cyclopentanecarbonyl-amino)-4-dibenzofuran-2-yl-4-oxo-butyric acid] | 7.10 | 6.46 | 5.36 |  |  | 
20 | O=C(CC(NC(=O)C1CCCCC1)C(=O)O)c1ccc2oc3ccccc3c2c1 (stereo not shown) [Example 50, 2-(Cyclohexanecarbonyl-amino)-4-dibenzofuran-2-yl-4-oxo-butyric acid] | 6.82 | 6.15 | 5.04 |  |  | 
21 | O=C(CC(NC(=O)c1cccs1)C(=O)O)c1ccc2oc3ccccc3c2c1 (stereo not shown) [Example 51, 4-Dibenzofuran-2-yl-4-oxo-2-[(thiophene-2-carbonyl)-amino]-butyric acid] | 6.80 | 5.89 | 4.80 |  |  | 
22 | O=C(Cc1cccs1)NC(CC(=O)c1ccc2oc3ccccc3c2c1)C(=O)O (stereo not shown) [Example 52, 4-Dibenzofuran-2-yl-4-oxo-2-(2-thiophen-2-yl-acetylamino)-butyric acid] | 5.60 | 5.11 | 4.32 |  |  | 
23 | O=C(CC(NC(=O)c1ccc2c(c1)OCO2)C(=O)O)c1ccc2oc3ccccc3c2c1 (stereo not shown) [Example 53, 2-[(Benzo[1,3)dioxole-5-carbonyl)-amino]-4-dibenzofuran-2-yl-4-oxo-butyric acid] | 6.89 | 6.00 | 5.04 |  |  | 
24 | CCC(C(=O)NC(CC(=O)c1ccc2oc3ccccc3c2c1)C(=O)O)c1ccccc1 (stereo not shown) [Example 54, 4-Dibenzofuran-2-yl-4-oxo-2-(2-phenylbutyrylamino)-butyric acid] | 7.22 | 6.60 | 5.82 |  |  | 
25 | Cc1nn(-c2ccccc2)nc1C(=O)NC(CC(=O)c1ccc2oc3ccccc3c2c1)C(=O)O (stereo not shown) [Example 55, 4-Dibenzofuran-2-yl-2-[(5-methyl-2-phenyl-2H-[1,2,3]triazole-4-carbonyl)-amino]-4-oxo-butyric acid] | 5.74 | 4.85 | 4.15 |  |  | 
